Holding throughout (type): cell-based
Test [1] has as its system mixture of Aspergillus niger (ATCC 9642), Aureobasidium pullulans (ATCC 15233), Chaetomium globosum (ATCC 6205), Penicillium funiculosum (ATCC 11797) and …. The test can be described thus: Fungal resistance ASTM G21 in swimming pool liner formulation. As to conditions: growth rating after 4 weeks. Details: key: 0 is no growth; 1 is traces of growth (less than 10%); 2 is light growth (10-30%); 3 is medium growth (30-60%); 4 is maximum growth (more than 60%). As for the experimental part:
(§1) Plastic samples containing the biocide concentrate composition containing antioxidant can be prepared by mixing with commercially available flexible PVC and processing at 175° C. in a brabender. The samples are pressed to form coupons for testing purposes. A sample containing no biocide is also prepared to serve as a negative control against the samples of the present invention.
(§2) Fungal resistance tests are conducted according to ASTM G-21. Briefly, a fungal inoculum containing a mixture of Aspergillus niger (ATCC 9642), Aureobasidium pullulans (ATCC 15233), Chaetomium globosum (ATCC 6205), Penicillium funiculosum (ATCC 11797) and Trichoderma virens (ATCC 9645) is prepared to obtain a final spore concentration of about 10^5 spores/ml. The samples (in triplicate) are placed on Petri-dishes containing nutrient salts agar and incubated with the spore suspension. The samples are then incubated at 28° C. for 4 weeks and rated weekly. The fungal growth of the samples is rated on a scale of 0 to 4 where: 0 is no growth, 1 is traces of growth (less than 10%); 2 is light growth (10-30%); 3 is medium growth (30-60%) and 4 is maximum growth (more than 60%). The ratings shown in Tables 1 to 3 correspond to those at the end of the test i.e., on 4th week for three different compositions of combination of biocidal agents.
A swimming pool liner formulation is selected. The individual and synergistic biocidal compositions respectively IPBC, Folpet, OBPA and Folpet+IPBC are added and processed in the brabender as described in Example 1. The efficacy data for each sample is tested according to ASTM G21. Growth ratings after 4 weeks are described in the following Table 4.

For test [2], the system named is Streptoverticillium reticulum (ATCC 25607). The test can be described thus: Pink Stain test ASTM E1428, flexible PVC coupons. Also noted: key: 0 is no stain; 1 is a trace of stain (less than 10%); 2 is light stain (10-30%); 3 is medium stain (30-50%); 4 is maximum stain (more than 50%). As to conditions: 14 days. The method, then:
as §1
Pink Stain tests are conducted according to ASTM E1428. Briefly, an inoculum containing the microorganism Streptoverticillium reticulum (ATCC 25607) is prepared. The inoculum is streaked onto the surface of Yeast Malt Extract Agar. The samples (in triplicate) are placed on the inoculated agar and incubated at 28° C. for 14 days. The degree of staining is rated on a scale of 0-4 where: 0 is no stain; 1 is a trace of stain (less than 10%); 2 is light stain (10-30%); 3 is medium stain (30-50%) and 4 is maximum stain (more than 50%). The ratings of the pink stain test are disclosed in Tables 1 to 3 for three different synergistic biocide compositions.

In test [3] the test system is mixture of A. niger (ATCC 9642) and P. funiculosum (ATCC 11797). The test can be described thus: Zone of Inhibition, flexible PVC coupons on seeded Malt agar. As to conditions: 4 weeks. Details: key: A zone of inhibition around the sample is rated as “+”; The absence of zone of inhibition is rated as “−”. The method, then: as §1
Briefly a fungal inoculum containing a mixture of A. niger (ATCC 9642) and P. funiculosum (ATCC 11797) is prepared. The spore suspension is added to molten Malt agar to a final concentration of 10^4-10^5 spores/ml, poured onto the petri-dishes and allowed to dry. The samples are placed on the surface of the seeded agar and incubated at 28° C. for 4 weeks. A zone of inhibition around the sample is rated as “+”. The absence of zone of inhibition is rated as “−”. The results are shown in Tables 1 to 3 for three different combinations of biocidal agents.

Test [4] deals with mixture of Aspergillus niger (ATCC 9642), Aureobasidium pullulans (ATCC 15233), Chaetomium globosum (ATCC 6205), Penicillium funiculosum (ATCC 11797) and …. The test can be described thus: Fungal resistance ASTM G21 in wall covering formulation. As to conditions: growth rating after 4 weeks. Also noted: key: 0 is no growth; 1 is traces of growth (less than 10%); 2 is light growth (10-30%); 3 is medium growth (30-60%); 4 is maximum growth (more than 60%). The method, then: as §1, §2
A wall covering formulation is employed for evaluating the efficacy of the present biocide concentrate composition. The individual and synergistic biocidal compositions respectively IPBC, Folpet, OBPA, Folpet+IPBC, and Folpet+TBZ are added and processed in the brabender as disclosed in Example 1. The efficacy data for each sample was tested according to ASTM G21. Growth ratings after 4 weeks are described in the following Table 5.

The test system is the same in test [5]. The test can be described thus: Fungal resistance test ASTM G-21, flexible PVC coupons. Details: key: 0 is no growth; 1 is traces of growth (less than 10%); 2 is light growth (10-30%); 3 is medium growth (30-60%); 4 is maximum growth (more than 60%). Particulars: rating at 4th week. As for the experimental part:
as §1, §2

Molecules are shown by their SMILES.

In the case of `O=C1c2ccccc2C(=O)N1SC(Cl)(Cl)Cl` [Folpet, trichloromethyl-thio-phthalimide], the “Fungal Resistance Test” value in test [1] (Quantity 2000 ppm) was 1 (1 is traces of growth (less than 10%)); in test [4] (Quantity 2000 ppm) it was 3 (3 is medium growth (30-60%)); in test [5] (Quantity 3000 ppm), 1 (1 is traces of growth (less than 10%)). Further, the “Pink Stain” value in test [2] (Quantity 3000 ppm) is recorded as 0. In addition, the Zone inhibition entry in test [3] (Quantity 3000 ppm) is listed as “−”.

Consider `CCCCNC(=O)OCC#CI` [IPBC, 3-iodo-2-propynylbutyl-carbamate], for which the “Fungal Resistance Test” value is recorded as 1 (1 is traces of growth (less than 10%)) in test [1] (Quantity 500 ppm), 2 (2 is light growth (10-30%)) in test [4] (Quantity 1000 ppm) and 1 (1 is traces of growth (less than 10%)) in test [5] (Quantity 500 ppm). For the same compound, the “Pink Stain” value in test [2] (Quantity 500 ppm) is recorded as 2 (2 is light stain (10-30%)). Moreover, the Zone inhibition entry in test [3] (Quantity 500 ppm) is given as “+”.

For the compound `c1ccc2c(c1)Oc1ccccc1[As]2O[As]1c2ccccc2Oc2ccccc21` [OBPA, 10,10-oxybisphenoxarsine], the “Fungal Resistance Test” value in test [1] (Quantity 400 ppm), in test [4] (Quantity 600 ppm) and in test [5] (Quantity 500 ppm) was 0 throughout. Also, the “Pink Stain” value in test [2] (Quantity 500 ppm) came to 0. For the same compound, in test [3] (Quantity 500 ppm), the Zone inhibition entry is recorded as “+”.

In the case of `CCCCCCCCn1sccc1=O` [OIT, 2-Octyl-4-isothiazolin-3-one], the “Pink Stain” value in test [2] (Quantity 500 ppm) was 1 (1 is a trace of stain (less than 10%)). The Zone inhibition result in test [3] (Quantity 500 ppm) is on record as “−”. Also, the “Fungal Resistance Test” value in test [5] (Quantity 500 ppm) is reported as 1 (1 is traces of growth (less than 10%)).

With `c1ccc2[nH]c(-c3cscn3)nc2c1` [TBZ, Thiabendazole], the “Pink Stain” value in test [2] (Quantity 500 ppm) was 2 (2 is light stain (10-30%)). Also, in test [3] (Quantity 500 ppm), the Zone inhibition entry is given as “−”. Further, the “Fungal Resistance Test” value in test [5] (Quantity 500 ppm) is given as 1 (1 is traces of growth (less than 10%)).

(Values after patent US20130310428A1, “THERMO-STABLE, ARSENIC-FREE SYNERGISTIC BIOCIDE CONCENTRATE COMPOSITION FOR POLYMER MATRICES AND PROCESS FOR PREPARING SAME” (ISP INVESTMENTS INC., priority 2010, published 2013).)
